According to patent US12473262B2, “Aryl hydrocarbon receptor activators” (Oregon State University, priority 2019, dated 2025):

Experiments:
[1] = Liver microsomal stability, human; details: for Rem @ HLM × 30 min: human liver microsomes, 1 μM compound, 0.5 mg/ml protein; for half-life at 1 μM / microsomal CLint at 1 μM: human, liver microsomes, pH 7.4
Method: (§1) The assessment of metabolic stability of testing compounds was performed using human, mouse, rat, dog and monkey liver microsomes (20 mg protein/ml). Each reaction mixture contained 42.5 μL of 0.1 M potassium phosphate buffer pH 7.4, containing respective LM protein (final concentration 0.5 mg/ml). 2.5 μL of the compound stock solution was added in it (1 μM final concentration). The reaction was initiated by the addition of 5 μL NADPH solution (final Concentration 1 mM). At different time points (0, 5, 15, and 30 minutes), samples were quenched with 200 μL of cold acetonitrile containing ISTD Propranolol. Samples were centrifuged at 3500 rpm for 20 mM at 4° C. Supernatant was subjected to LC-MS/MS analysis for quantification. Verapamil was used as a positive control.

[2] = Liver microsomal stability, mouse; details: for Rem @ MLM × 30 min: mouse liver microsomes, 1 μM compound, 0.5 mg/ml protein; for half-life at 1 μM / microsomal CLint at 1 μM: mouse, liver microsomes, pH 7.4
[3] = target: aryl hydrocarbon receptor (AhR) (Mus musculus (Mouse), UniProt P30561); experiment: AhR ligand screening: AhRE-luciferase reporter in transfected Hepa1 cells; type: cell-based; details: for Fold @ 1 nM: fold change of luciferase expression at 1 nM test compound relative to vehicle (0.1% DMSO); for Fold @ 100 nM: fold change of luciferase expression at 100 nM test compound relative to vehicle (0.1% DMSO); for Fold @ 10 uM: fold change of luciferase expression at 10 uM test compound relative to vehicle (0.1% DMSO); for Fold relative to benchmark @ 100 nM: luciferase expression at 100 nM test compound relative to 100 nM benchmark compound 11-cl-BBQ
Sequence of aryl hydrocarbon receptor (AhR) (P30561 10-805): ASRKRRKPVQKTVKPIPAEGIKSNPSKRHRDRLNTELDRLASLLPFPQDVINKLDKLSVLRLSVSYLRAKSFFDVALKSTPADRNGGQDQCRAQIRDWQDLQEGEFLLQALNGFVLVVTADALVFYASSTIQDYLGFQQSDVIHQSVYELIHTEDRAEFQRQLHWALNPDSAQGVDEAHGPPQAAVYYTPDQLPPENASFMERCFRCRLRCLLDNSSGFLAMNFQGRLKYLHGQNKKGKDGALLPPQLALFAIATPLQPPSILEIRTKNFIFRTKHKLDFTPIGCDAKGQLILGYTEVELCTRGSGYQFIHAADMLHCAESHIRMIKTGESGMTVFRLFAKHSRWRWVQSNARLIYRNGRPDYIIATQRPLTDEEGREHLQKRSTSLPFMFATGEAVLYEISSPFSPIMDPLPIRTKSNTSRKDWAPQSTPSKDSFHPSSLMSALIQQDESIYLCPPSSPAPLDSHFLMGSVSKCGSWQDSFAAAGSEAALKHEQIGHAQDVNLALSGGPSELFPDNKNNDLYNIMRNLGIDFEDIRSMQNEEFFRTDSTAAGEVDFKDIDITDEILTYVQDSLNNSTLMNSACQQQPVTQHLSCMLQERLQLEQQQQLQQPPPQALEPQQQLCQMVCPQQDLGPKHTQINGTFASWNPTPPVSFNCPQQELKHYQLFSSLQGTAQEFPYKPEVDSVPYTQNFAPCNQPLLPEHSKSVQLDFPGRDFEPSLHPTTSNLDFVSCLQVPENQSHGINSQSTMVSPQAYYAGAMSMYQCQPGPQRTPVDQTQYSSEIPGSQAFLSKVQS
Sequence of aryl hydrocarbon receptor (AhR) (P53762 whole entry partner): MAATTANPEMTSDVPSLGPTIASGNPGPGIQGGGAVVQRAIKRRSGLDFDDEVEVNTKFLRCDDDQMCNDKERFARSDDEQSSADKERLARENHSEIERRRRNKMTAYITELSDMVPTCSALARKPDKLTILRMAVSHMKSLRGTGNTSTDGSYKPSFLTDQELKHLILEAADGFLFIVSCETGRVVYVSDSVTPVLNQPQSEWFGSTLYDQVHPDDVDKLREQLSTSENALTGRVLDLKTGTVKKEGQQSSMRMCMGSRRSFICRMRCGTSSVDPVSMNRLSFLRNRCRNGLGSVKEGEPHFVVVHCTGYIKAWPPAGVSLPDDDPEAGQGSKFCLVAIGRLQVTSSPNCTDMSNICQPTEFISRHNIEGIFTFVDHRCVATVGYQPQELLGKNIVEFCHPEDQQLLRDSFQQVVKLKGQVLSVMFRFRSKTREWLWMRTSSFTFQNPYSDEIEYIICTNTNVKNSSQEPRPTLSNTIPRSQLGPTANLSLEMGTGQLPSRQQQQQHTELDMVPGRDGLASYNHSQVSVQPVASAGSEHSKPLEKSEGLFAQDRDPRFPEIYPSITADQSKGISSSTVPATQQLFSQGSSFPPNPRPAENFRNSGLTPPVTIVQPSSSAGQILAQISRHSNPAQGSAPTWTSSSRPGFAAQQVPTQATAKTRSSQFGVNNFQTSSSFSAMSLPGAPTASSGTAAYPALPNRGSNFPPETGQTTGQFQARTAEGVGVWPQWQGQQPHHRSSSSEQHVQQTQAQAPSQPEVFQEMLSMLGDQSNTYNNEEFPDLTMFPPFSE
Method in brief: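 Values are fold luciferase induction relative to vehicle (0.1% DMSO), read by luminometry of lysates from Hepa1 cells carrying an AhRE-driven luciferase reporter. Cells were seeded at 1×10^4 per well, grown overnight and treated with compound before lysis.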

[4] = Liver microsomal stability, rat; details: for Rem @ RLM × 30 min: rat liver microsomes, 1 μM compound, 0.5 mg/ml protein; for half-life at 1 μM / microsomal CLint at 1 μM: rat, liver microsomes, pH 7.4
Method: as §1

Row | SMILES | Rem @ HLM × 30 min [1] [%] | half-life at 1 μM [1] [min] | microsomal CLint at 1 μM [1] [µL/min/mg] | Rem @ MLM × 30 min [2] [%] | half-life at 1 μM [2] [min] | microsomal CLint at 1 μM [2] [µL/min/mg] | Fold @ 1 nM [3] [fold] | Fold @ 100 nM [3] [fold] | Fold @ 10 uM [3] [fold] | Fold relative to benchmark @ 100 nM [3] [fold] | Rem @ RLM × 30 min [4] [%] | half-life at 1 μM [4] [min] | microsomal CLint at 1 μM [4] [µL/min/mg]
1 | O=C(c1cccc2ccccc12)C1CN(C(=O)c2ccccc2)c2ccc(Cl)cc21 (stereo not shown) [Compound 521] | 58.0 | 40.3 | 34 | 64.6 | 60.9 | 23 | 1 | 1 | 1 | 0.07 | 45.5 | 24.8 | 56
2 | O=S(=O)(c1ccc(C(F)(F)F)cc1)n1c(-c2cccc3ccccc23)nc2cc(Cl)ccc21 [Compound 781] | 44.4 | 24.6 | 56.3 | 18.0 | 12.1 | 115 | 1 | 20 | 24 | 0.8 | 43.1 | 24.4 | 56.8
3 | COc1ccc(C(=O)c2c[nH]c3ccc(Cl)cc23)cc1 [Compound 894] | 57.9 | 45.3 | 30.6 | 54.5 | 37.6 | 36.9 | 1 | 1 | 7 | 0.02 | 58.1 | 43 | 32.3
4 | O=S(=O)(c1ccc2ccccc2c1)n1c(-c2cccc3ccccc23)nc2cc(Cl)ccc21 [Compound 785] | 54.2 | 33.9 | 40.9 | 49.3 | 29.4 | 47.2 | 1 | 16 | 44 | 0.55 | 57.1 | 36.5 | 37.9
5 | O=C(c1ccccc1)c1c[nH]c2ccc(Cl)cc12 [Compound 892] | 24.7 | 15.3 | 90.7 | 36.7 | 21 | 66.1 | 1 | 1 | 15 | 0.02 | 64.9 | 57 | 24.3
6 | O=C(c1cccc(Cl)c1Cl)c1c[nH]c2ccc(Cl)cc12 [Compound 889] | 30.2 | 22.6 | 61.2 | 43.5 | 33.9 | 40.9 | 1 | 1 | 5 | 0.02 | 33.5 | 25.6 | 54.2
7 | O=C(c1ccc(SC(F)(F)F)cc1)c1c[nH]c2ccc(Cl)cc12 [Compound 884] | 81.2 | 98.8 | 14 | 22.2 | 13.9 | 100 | 1 | 2 | 16 | 0.04 | 23.1 | 14.3 | 96.7
8 | O=C(c1ccc(Cl)cc1Cl)c1c[nH]c2ccc(Cl)cc12 [Compound 890] | 44.7 | 35.2 | 39.4 | 39.3 | 28.2 | 49.1 | 1 | 2 | 17 | 0.04 | 37.4 | 29 | 47.8
9 | CN(C)c1ccc(C(=O)c2c[nH]c3ccc(Cl)cc23)cc1 [Compound 891] | 54.3 | 42.4 | 32.7 | 52.4 | 36.3 | 38.2 | 1 | 1 | 21 | 0.02 | 45.2 | 31 | 44.7
10 | O=S(=O)(C1CC1)n1c(-c2cccc3ccccc23)nc2cc(Cl)ccc21 [Compound 783] | – | – | – | – | – | – | 1 | 1 | 24 | 0.03 | – | – | –
11 | Cc1ccc(S(=O)(=O)n2c(-c3cccc4ccccc34)nc3cc(Cl)ccc32)cc1 [Compound 527, 5-chloro-2-(naphthalen-1-yl)-1-tosyl-1H-benzo[d]imidazole] | – | – | – | – | – | – | 1 | 15 | 36 | 0.38 | – | – | –
12 | O=C(c1ccc2nc(-c3cccc4ccccc34)n(Cc3cccc4ccccc34)c2c1)N1CCOCC1 [Compound 1409] | – | – | – | – | – | – | 1 | 1 | 4 | 0.03 | – | – | –
13 | O=C(c1ccc2nc(-c3cccc4ccccc34)n(S(=O)(=O)c3cccc(F)c3)c2c1)N1CCCCC1 [Compound 1369] | – | – | – | – | – | – | 1 | 1 | 2 | 0.03 | – | – | –
14 | O=C(C1CC1)n1c(-c2cccc3ccccc23)nc2cc(Cl)ccc21 [Compound 773] | – | – | – | – | – | – | 1 | 25 | 40 | 1 | – | – | –
15 | O=c1c2cccc3cccc(c32)c2nc3ccccc3n12 [Compound 523] | – | – | – | – | – | – | 1.8 | 11.5 | 12 | 0.82 | – | – | –

Next, values leading:

Row | Rem @ HLM × 30 min [1] [%] | half-life at 1 μM [1] [min] | microsomal CLint at 1 μM [1] [µL/min/mg] | Rem @ MLM × 30 min [2] [%] | half-life at 1 μM [2] [min] | microsomal CLint at 1 μM [2] [µL/min/mg] | Fold @ 1 nM [3] [fold] | Fold @ 100 nM [3] [fold] | Fold @ 10 uM [3] [fold] | Fold relative to benchmark @ 100 nM [3] [fold] | Rem @ RLM × 30 min [4] [%] | half-life at 1 μM [4] [min] | microsomal CLint at 1 μM [4] [µL/min/mg] | SMILES
16 | 28.3 | 16.4 | 84.6 | 23.9 | 14.6 | 94.7 | 1 | 15 | 20 | 0.6 | 27.5 | 16.3 | 84.9 | CCc1ccc(S(=O)(=O)n2c(-c3cccc4ccccc34)nc3ccc(Cl)cc32)cc1 [Compound 776]
17 | 27.4 | 16.1 | 86.2 | 22.1 | 13.4 | 104 | 1 | 31 | 40 | 1.07 | 25.6 | 14.8 | 93.8 | O=S(=O)(c1ccc2ccccc2c1)n1c(-c2cccc3ccccc23)nc2ccc(Cl)cc21 [Compound 786]
18 | 52.7 | 36.3 | 38.2 | 28.2 | 19.3 | 71.9 | 1 | 21 | 28 | 0.84 | 45.5 | 31.9 | 43.5 | O=C(C1CC1)n1c(-c2cccc3ccccc23)nc2ccc(Cl)cc21 [Compound 774]
19 | – | – | – | – | – | – | 1 | 2 | 30 | 0.07 | – | – | – | COC(=O)c1ccc2nc(-c3cccc4ccccc34)n(C(=O)c3ccc(OC(F)(F)F)cc3)c2c1 [Compound 1405]
20 | – | – | – | – | – | – | 1 | 9 | 74 | 0.31 | – | – | – | O=C(c1ccc(F)c(F)c1)n1c(-c2ccc(Cl)c3ccccc23)nc2ccc(Cl)cc21 [Compound 870]
21 | – | – | – | – | – | – | 1 | 23 | 30 | 0.88 | – | – | – | O=C(c1ccc(F)cc1F)n1c(-c2cccc3ccccc23)nc2cc(Cl)ccc21 [Compound 695]
22 | – | – | – | – | – | – | 1 | 1 | 27 | 0.11 | – | – | – | O=C(c1ccc(F)c(F)c1)n1c(-c2c3ccccc3cc3ccccc23)nc2ccc(Cl)cc21 [Compound 642]
